Laboratory results published in patent publication EP4001271A1, “CRYSTALLINE FORM OF 2-CHLORO-N-CYCLOPROPYL-5-[1-[2,6-DICHLORO-4-[1,2,2,2-TETRAFLUORO-1- (TRIFLUOROMETHYL)ETHYL]PHENYL]PYRAZOL-4-YL]-N-METHYL-PYRIDINE-3-CARBOXAMIDE” (Bayer Aktiengesellschaft, priority 2020, dated 2022).
Like-named read-outs stand apart in the source and are kept apart here.

What was measured:
Type in all cases: physicochemical
[1] = Quantitative solubility in solvents, stepwise solvent addition with visual check; details: read-out: solubility (concentration in solvent)
Protocol: The solubility of the active provided in Example 1 was further investigated in various solvents (entry 1 to 14 of Table 6). For the determination of the quantitative solubility, the respective solvent(-mixture) was added to approx. 40 mg of the solid, up to a maximum solvent addition of 2 mL in 50 - 200 µL steps. The vials were sealed between each addition of the solvent and the solubility was checked visually. […] Optically clear solutions were filtered via a so-called syringe prefilter and evaporated to dryness at different temperatures. Furthermore, cooling crystallizations were carried out. Undissolved substances were stirred for one week at room temperature in the respective anti-solvent. Table 5. Selection of solvents and anti-solvents
Based on the solvents and anti-solvents from Table 5, crystallization experiments, listed in Table 6, were carried out to obtain new solid forms of the active provided in Example 1. X-ray powder diffraction was used to assess whether a new phase has been formed.

[2] = Storage experiment, influence of temperature on stability of crystalline form A (HPLC purity, XRD form); details: for Purity / remaining at 672 h / remaining at 2016 h / remaining at 4032 h: HPLC, 1 mg/2mL ACN; for remaining at 672 h / remaining at 2016 h / remaining at 4032 h: solid storage
Protocol: (§1) For Powder X-Ray Diffraction (XRD) the samples were placed into standard glass capillaries (∅ = 0.7 mm). The measurements were performed at room temperature with a D8 Bruker Advance Diffractometer (Cu-Kα1 = 1.5406 Å, Johansson primary beam monochromator, position sensitive detector) in transmission mode with rotation of the sample. Data were collected in a two-theta range of 2 - 38°. The tube voltage and current were 40 kV and 40 mA, respectively. [table] [table] Storage experiments in different environments (25°C, 50°C, 25°C/85 % RH) were performed to investigate the influence of temperature and moisture on the stability of crystalline form A of the compound of formula (I). […] Two samples of crystalline form A were stored at 25°C and 50°C, respectively (see Table 7). The samples were analyzed after 0, 1, 3, and 6 months by DSC, TGA, spectroscopy, X-ray powder diffraction, and HPLC (measurements for chemical stability). […] Exemplarily, the HPLC results are disclosed in Table 7. Table 7. Influence of temperature after four, 12, and 24 weeks. Purity determined by HPLC. ACN denotes acetonitrile. *entry 16 of Table 6

[3] = Storage experiment, influence of humidity on stability of crystalline form A (HPLC purity, XRD form)
Protocol: as §1, with “25°C/approx. 85 % rel. humidity” for “25°C and 50°C, respectively”, “8).” for “7).”, “8.” for “7.”, “humidity 0, 1, 3” for “temperature after four, 12,”, “6 months.” for “24 weeks.”

[4] = DVS water sorption study (hydrate formation); details: 0 to 90% RH and back in 10% increments
Protocol: The water sorption was determined using a DVS Resolution (London, UK) gravimetric sorption analyzer. The sample was dried at 0% relative humidity for 1000 minutes, after which the dry mass was recorded. Humidity was ramped in 10% increments to 90% RH and then back to 0% RH. The equilibrium criterion was set to a relative mass change of dm/dt=0.002%/minute.

A solubility ([1]; 3-methyl-1-butanol, organic solvent or mixture, 3-methyl-1-butanol, entry 9, evaporation 50°C) of 21 mg/mL, a solubility ([1]; acetonitrile, organic solvent or mixture, acetonitrile, entry 14, evaporation at ambient conditions) of 30 mg/mL and a solubility ([1]; cyclohexane, organic solvent or mixture, cyclohexane (anti-solvent, not completely dissolved), entry 8, slurry 1 week) of 19 mg/mL were found for CN(C(=O)c1cc(-c2cnn(-c3c(Cl)cc(C(F)(C(F)(F)F)C(F)(F)F)cc3Cl)c2)cnc1Cl)C1CC1 [compound of formula (I), 2-Chloro-N-cyclopropyl-5-[1-[2,6-dichloro-4-[1,2,2,2-tetrafluoro-1-(trifluoromethyl)ethyl]phenyl]pyrazol-4-yl]-N-methyl-pyridine-3-carboxamide] in this work. It also gave a solubility ([1]; ethanol, organic solvent or mixture, EtOH, entry 5, evaporation at ambient conditions) of 25 mg/mL, a solubility ([1]; heptane, organic solvent or mixture, heptane (anti-solvent, not completely dissolved), entry 7, slurry 1 week) of 19 mg/mL and a solubility ([1]; isopropyl alcohol, organic solvent or mixture, isopropyl alcohol, entry 1, clear solution, evaporation at ambient conditions) of 17 mg/mL. It also gave a solubility ([1]; isopropyl alcohol/propylene carbonate 65:35, organic solvent or mixture, isopropyl alcohol/propylene carbonate 65:35 %w/w, entry 3, slurry 1 week) of 268 mg/mL, a solubility ([1]; isopropyl alcohol/propylene carbonate 65:35, organic solvent or mixture, isopropyl alcohol/propylene carbonate 65:35 %w/w, entry 4, evaporation 50°C) of 93 mg/mL and a solubility ([1]; propylene carbonate, organic solvent or mixture, propylene carbonate, entry 2, slurry 1 week) of 276 mg/mL. The solubility ([1]; water, H2O (anti-solvent, not completely dissolved), entry 6, slurry 1 week) was 19 mg/mL.

With CN(C(=O)c1cc(-c2cnn(-c3c(Cl)cc(C(F)(C(F)(F)F)C(F)(F)F)cc3Cl)c2)cnc1Cl)C1CC1 [crystalline form A, 2-chloro-N-cyclopropyl-5-[1-[2,6-dichloro-4-[1,2,2,2-tetrafluoro-1-(trifluoromethyl)ethyl]phenyl]pyrazol-4-yl]-N-methyl-pyridine-3-carboxamide] the “phase transition on storage” value ([2]; 25°C and 50°C, after twelve weeks) was “no phase transition”, the “change in DSC, TGA, spectroscopy, X-ray powder diffraction and HPLC measurements on storage” value ([2]; 25°C and 50°C, after 0, 1, 3 and 6 months) was “did not result in a significant change” and the Purity ([2]; 25 °C, 4 weeks, 40320 min, listed as 16*) was 99.09%. It also gave a Purity ([2]; 25 °C, 12 weeks, 120960 min, listed as 16*) of 99.23%, a Purity ([2]; 50 °C, 12 weeks, 120960 min, listed as 16*) of 99.25% and a Purity ([2]; 50 °C, 24 weeks, 241920 min, listed as 16*) of 99.34%. It also gave a Purity ([2]; no storage (initial value)) of 99.54%, a remaining at 672 h ([2]; 25 °C, 4 weeks) of 98.3% and a remaining at 2016 h ([2]; 25 °C, 12 weeks) of 99.3%. The remaining at 4032 h ([2]; 25 °C, 24 weeks) was 99.4%, the remaining at 672 h ([2]; 50 °C, 4 weeks) was 99.1% and the remaining at 2016 h ([2]; 50 °C, 12 weeks) was 99.5%. The remaining at 4032 h ([2]; 50 °C, 24 weeks) was 99.4%, the Purity ([3]; 25 °C, 85% RH, 4 weeks, HPLC, 1 mg/2mL ACN, 40320 min, listed as 16*) was 99.10% and the Purity ([3]; 25 °C, 85% RH, 12 weeks, HPLC, 1 mg/2mL ACN, 120960 min, listed as 16*) was 99.25%. The Purity ([3]; 25 °C, 85% RH, 24 weeks, HPLC, 1 mg/2mL ACN, 241920 min, listed as 16*) was 99.75%, the “phase transition on storage” value ([3]; 25°C/85 % RH, after twelve weeks) was “no phase transition” and the “change in DSC, TGA, spectroscopy, X-ray powder diffraction and HPLC measurements on storage” value ([3]; 25°C/approx. 85 % rel. humidity, after 0, 1, 3 and 6 months) was “did not result in a significant change”. For the same compound, the Purity ([3]; no storage (initial value), HPLC, 1 mg/2mL ACN) was 99.54%, the remaining at 672 h ([3]; solid storage, 85% rh, 25 °C, 4 weeks, HPLC, 1 mg/2mL ACN) was 99% and the remaining at 2016 h ([3]; solid storage, 85% rh, 25 °C, 12 weeks, HPLC, 1 mg/2mL ACN) was 99.3%. The remaining at 4032 h ([3]; solid storage, 85% rh, 25 °C, 24 weeks, HPLC, 1 mg/2mL ACN) was 99.4%, the hydrate formation [4] was “does not form hydrates” and the hygroscopicity [4] was “not hygroscopic”. For the same compound, the “mass increase over the entire area” value [4] was “negligibly small”.
